ChEMBL document CHEMBL1129973, “HIV-1 integrase pharmacophore: discovery of inhibitors through three-dimensional database searching” (J Med Chem, 1997)

Key:
[1] = target: T1, Human immunodeficiency virus type 1 integrase (Human immunodeficiency virus 1, UniProt Q7ZJM1); experiment: Inhibitory concentration against HIV-1 integrase by strand transfer method
[2] = target: T1, Human immunodeficiency virus type 1 integrase; experiment: Inhibitory concentration to inhibit HIV-1 integrase by 3' -processing method
[3] = target: T1, Human immunodeficiency virus type 1 integrase; experiment: Inhibitory concentration required to inhibit HIV-1 integrase by strand transfer method
[4] = target: T1, Human immunodeficiency virus type 1 integrase; experiment: Inhibitory concentration to inhibit HIV-1 integrase by 3' -processing

T1 sequence (Q7ZJM1 whole entry): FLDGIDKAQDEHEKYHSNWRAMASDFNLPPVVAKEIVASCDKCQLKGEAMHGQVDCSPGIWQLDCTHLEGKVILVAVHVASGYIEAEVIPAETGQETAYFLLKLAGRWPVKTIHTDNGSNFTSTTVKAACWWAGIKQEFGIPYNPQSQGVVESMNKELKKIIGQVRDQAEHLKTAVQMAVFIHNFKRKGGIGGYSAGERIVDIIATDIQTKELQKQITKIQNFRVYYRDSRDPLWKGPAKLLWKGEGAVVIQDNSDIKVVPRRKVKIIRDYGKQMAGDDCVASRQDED

Row | IC50 [1] | IC50 [2] | IC50 [3] | IC50 [4] | Compound
1 | > 200 µM | > 200 µM |  |  | Cc1cc(NS(=O)(=O)c2ccc(N/N=C3/C(=N)C(C)C(=O)C(C)C3=O)cc2)nc(C)n1 (stereo not given)
2 | > 200 µM | > 200 µM |  |  | CCOC(=O)C(CCCCn1cnc2ncnc(Cl)c21)(NC(C)=O)C(=O)OCC
3 | > 200 µM | > 200 µM |  |  | CC(=O)Nc1ccc(S(=O)(=O)/N=N/NCC(=O)O)cc1
4 | > 200 µM | > 200 µM |  |  | CCC(=O)C(C)C(=O)C(=O)NCCNC(=O)C(=O)C(C)C(=O)CC (stereo not given)
5 | > 200 µM | > 200 µM |  |  | CC(=O)Nc1cc2cc(NS(=O)(=O)c3cc(C(F)(F)F)cc(C(F)(F)F)c3)ccc2oc1=O
6 | > 200 µM | > 200 µM |  |  | C=C1CC(c2ccc(S(=O)(=O)N3CCOCC3)cc2)OC1=O (stereo not given)
7 | 13.7 µM | 48.3 µM |  |  | Cc1cc(C)nc(NS(=O)(=O)c2ccc(NC(=O)c3cccc4c(N)c5ccccc5nc34)cc2)n1
8 | 65 µM | 70 µM |  |  | CC(=O)C1(/N=N/c2ccc(S(=O)(=O)Nc3nccc(C)n3)cc2)CCOC1=O (stereo not given)
9 | > 200 µM | > 200 µM |  |  | O=C(O)[C@H]1OC(n2cc([N+](=O)[O-])c(=O)[nH]c2=O)[C@H](O)[C@@H]1O (stereo not given in full)
10 | > 200 µM | > 200 µM |  |  | CS(=O)(=O)Nc1ccc2oc(=O)c3ccccc3c2c1
11 | 14.3 µM | 27.9 µM |  |  | CC(=O)Nc1cccc2cc(S(=O)(=O)O)ccc12
12 | 178 µM | 244 µM |  |  | CC(=O)C1(/N=N/c2ccc(S(=O)(=O)Nc3nnc(C)s3)cc2)CCOC1=O (stereo not given)
13 | > 200 µM | > 200 µM |  |  | NS(=O)(=O)c1ccc(NC(=O)/C=C\C(=O)O)cc1
14 | 80 µM | 122 µM |  |  | Cc1ccnc(NS(=O)(=O)c2ccc(NC(=O)Nc3ccc(Cl)c(C(F)(F)F)c3)cc2)n1
15 | 77 µM | 134 µM |  |  | CC1=NN(c2ccccc2)C(=O)C1/N=N/c1ccc(S(=O)(=O)Nc2nnc(C)s2)cc1 (stereo not given)
16 | > 200 µM | > 200 µM |  |  | Cc1cc(C)nc(NS(=O)(=O)c2ccc(CN3C(=O)c4ccccc4C3=O)cc2)n1
17 | > 200 µM | > 200 µM |  |  | Cc1ccccc1CN1C2=NCCN2C(=O)C2=C1CCN(S(=O)(=O)c1ccc(Cl)c(S(N)(=O)=O)c1)C2
18 | > 200 µM | > 200 µM |  |  | NS(=O)(=O)c1ccc(NC=C2C(=O)N(c3ccccc3)N(c3ccccc3)C2=O)cc1
19 | > 200 µM | > 200 µM |  |  | CC1=NN(c2ccccc2)C(=O)C1/N=N/c1ccc(S(N)(=O)=O)cc1 (stereo not given)
20 | 14 µM | 28.6 µM |  |  | O=C1NC(=S)SC1c1ccc(S(=O)(=O)Nc2ncccn2)cc1 (stereo not given)

Row | IC50 [1] | IC50 [2] | IC50 [3] | IC50 [4] | Compound
21 | > 200 µM | > 200 µM |  |  | CC1C(=N)/C(=N/Nc2ccc(S(=O)(=O)Nc3ncccn3)cc2)C(=O)C(C)C1=O (stereo not given)
22 | > 200 µM | > 200 µM |  |  | Nc1ncnc2c1ncn2[C@@H]1O[C@H](CO[C@@H]2[C@@H](O)[C@H](OS(=O)(=O)O)[C@H](O)[C@@H](O[C@H]3O[C@@H](CO)[C@@H](O)[C@H](O)[C@@H]3N)[C@]2(O)C(=O)[C@@H](N)CO)[C@@H](O)[C@H]1O
23 | > 200 µM | > 200 µM |  |  | CCOC(=O)N(CCCCCCNC(c1ccccc1)S(=O)(=O)O)c1ccccc1 (stereo not given)
24 | > 200 µM | > 200 µM |  |  | Cc1nnc(NS(=O)(=O)c2ccc(N/N=C3/C(=N)C(C)C(=O)C(C)C3=O)cc2)s1 (stereo not given)
25 | 8.8 µM | 8.2 µM |  |  | NNS(=O)(=O)c1ccc(OCC(=O)O)cc1
26 | 19 µM | 24 µM |  |  | Cc1nnc(NS(=O)(=O)c2ccc(C3SC(=S)NC3=O)cc2)s1 (stereo not given)
27 | > 200 µM | > 200 µM |  |  | CC1=NN(c2ccccc2)C(=O)C1/N=N/c1ccc(S(=O)(=O)Nc2cc(C)nc(C)n2)cc1 (stereo not given)
28 | > 200 µM | > 200 µM |  |  | CC(=O)C1(/N=N/c2ccc(S(=O)(=O)Nc3ccccn3)cc2)CCOC1=O (stereo not given)
29 | 112 µM | 140 µM |  |  | O=C(Nc1ccc(S(=O)(=O)Nc2ccc(/N=N/c3ccccc3)cc2)cc1)C(Sc1[nH]cnc2ncnc1-2)Sc1[nH]cnc2ncnc1-2
30 | > 200 µM | > 200 µM |  |  | CCOC(=O)C(/C=N/c1ccc(S(N)(=O)=O)cc1)C(=O)OCC
31 | 96 µM | 120 µM |  |  | Nc1nc(N)c(/N=N/c2ccc(S(=O)(=O)NC(=O)c3ccccc3)cc2)c(O)n1
32 | > 200 µM | > 200 µM |  |  | CC(=O)OCC1OC(n2ccc(-n3cncn3)nc2=O)CC1N=[N+]=[N-] (stereo not given)
33 | > 200 µM | > 200 µM |  |  | COc1cc(NS(=O)(=O)c2ccc(C(C)=O)cc2)nc(OC)n1
34 | > 200 µM | > 200 µM |  |  | CC(=O)NCCSS(=O)(=O)CCCCCS(=O)(=O)SCCNC(C)=O
35 |  |  | 97 µM | 124 µM | CC1=NN(c2ccccc2)C(=O)C1/N=N/c1ccc(S(=O)(=O)Nc2scc(C)c2C)cc1 (stereo not given)
36 | > 200 µM | > 200 µM |  |  | COC(=O)c1noc2c1CSC1=C2CS(=O)(=O)c2ccccc21
37 | > 200 µM | > 200 µM |  |  | CC1C(=N)/C(=N/Nc2ccc(S(=O)(=O)Nc3nccs3)cc2)C(=O)C(C)C1=O (stereo not given)
38 | > 200 µM | > 200 µM |  |  | CCOC(=O)C(Cc1cn(S(=O)(=O)c2ccccc2)c2ccccc12)(NC(C)=O)C(=O)OCC
39 | > 200 µM | > 200 µM |  |  | CC1=NN(c2ccccc2)C(=O)C1/N=N/c1ccc(S(=O)(=O)Nc2ncccn2)cc1 (stereo not given)
40 | > 200 µM | > 200 µM |  |  | NS(=O)(=O)c1ccc(NC(=O)/C=C/C(=O)O)cc1

Row | IC50 [1] | IC50 [2] | IC50 [3] | IC50 [4] | Compound
41 | 61 µM | 71 µM |  |  | NC1=NNC(=O)C1/N=N/c1ccc(S(=O)(=O)Nc2nccs2)cc1 (stereo not given)
42 | > 200 µM | > 200 µM |  |  | O=C(O)c1ccccc1/C=N/NC1=CS(=O)(=O)C=C1
43 | > 200 µM | > 200 µM |  |  | CCOC(=O)COc1ccc(S(=O)(=O)c2ccc(OCC(=O)OCC)cc2)cc1
44 | > 200 µM | > 200 µM |  |  | CC(=O)N(C(C)=O)c1nc2c(c(=O)n(C)c(=O)n2C)n1C
45 | 2.7 µM | 3.4 µM |  |  | CC(=O)Nc1ccc(N)c2cc(S(=O)(=O)O)ccc12
46 | 23.6 µM | 49 µM |  |  | CC1=NN(c2ccccc2)C(=O)C1/N=N/c1ccc(S(=O)(=O)Nc2nccc(C)n2)cc1 (stereo not given)
47 | 143 µM | 193 µM |  |  | CC(=O)C1(/N=N/c2ccc(S(=O)(=O)Nc3onc(C)c3C)cc2)CCOC1=O (stereo not given)
48 | 126 µM | 209 µM |  |  | NS(=O)(=O)c1ccc(/N=N/C2Sc3nc4ccccc4n3C2=O)cc1 (stereo not given)
49 | > 200 µM | > 200 µM |  |  | CC1=NN(c2ccccc2)C(=O)C1/N=N/c1ccc(S(=O)(=O)Nc2ccccn2)cc1 (stereo not given)
50 | > 200 µM | > 200 µM |  |  | NS(=O)(=O)c1ccc(NN=C2C(=O)N(c3ccccc3)N(c3ccccc3)C2=O)cc1
51 | > 200 µM | > 200 µM |  |  | Cc1csc(NS(=O)(=O)c2ccc(N/N=C3/C(=N)C(C)C(=O)C(C)C3=O)cc2)c1C (stereo not given)
52 | > 200 µM | > 200 µM |  |  | CC1C(=N)/C(=N/Nc2ccc(S(=O)(=O)Nc3ccccn3)cc2)C(=O)C(C)C1=O (stereo not given)
53 | > 200 µM | > 200 µM |  |  | CCC(=O)CCC1=Nc2nnc(CCCCc3nnc4n3C(=O)C(CCC(=O)CC)=N4)n2C1=O
54 | > 200 µM | > 200 µM |  |  | CCOC(=S)SC1OC(COC(C)=O)C(OC(C)=O)C(OC(C)=O)C1OC(C)=O (stereo not given)
55 | 44.6 µM | 75.5 µM |  |  | Cc1cc(C)nc(NS(=O)(=O)c2ccc(NC(=O)c3cccn4c(=O)c5ccccc5nc34)cc2)n1
56 | > 200 µM | > 200 µM |  |  | Cc1ccnc(NS(=O)(=O)c2ccc(N/N=C3/C(=N)C(C)C(=O)C(C)C3=O)cc2)n1 (stereo not given)
57 | > 200 µM | > 200 µM |  |  | CS(=O)(=O)c1nc2ccc(N3C(=O)c4ccccc4C3=O)cc2s1
58 | > 200 µM | > 200 µM |  |  | O=C(CNC(=O)c1cnc2ccccc2n1)NCCCNC(=O)CNC(=O)c1cnc2ccccc2n1

Row | Compound | IC50 [1] | IC50 [2] | IC50 [3] | IC50 [4]
59 | CC(=O)Nc1cc(S(=O)(=O)O)cc2cc(S(=O)(=O)O)cc(O)c12 | 0.29 µM | 0.47 µM |  | 
60 | O=C(Nc1ccc(S(=O)(=O)Nc2ccc(/N=N/c3ccc(S(=O)(=O)Nc4nccs4)cc3)cc2)cc1)C(N1CC1)(N1CC1)N1CC1 | > 200 µM | > 200 µM |  | 
